Measured values as given in patent publication US5929056A, “Vitamin D compounds and method of preparing these compounds” (Duphar International Research B.V., priority 1994, dated 1999).

Tests used:
[1] = test system: human leukemic cell line HL-60; assay: Cell differentiation in HL-60 assay (NBT reduction); type: cell-based; details: for concentration of optimum differentiating effect / NBT-reduction inducing capacity relative to the known 1α,25-DHCC: HL-60 cells; for concentration of optimum differentiating effect / induction of differentiation and maturation of HL-60 cells: NBT reduction; for induction of differentiation and maturation of HL-60 cells: 10^-12 to 10^-6 M; for NBT-reduction inducing capacity relative to the known 1α,25-DHCC: FIGS. 2 and 3, potency ratio versus 1α,25-DHCC
Method: Vitamin D compounds according to the invention are dissolved in ethanol in concentrations ranging from 10^-12 to 10^-6 M and tested for their capacity to induce cell differentiation in a HL-60 assay. In this assay, biochemical examination of the human leukemic cell line HL-60 is done, in order to establish whether cell differentiation has taken place.
Differentiation is expressed as the maturation parameter nitroblue tetrazolium (NBT) reduction. After culturing with the known 1α,25-DHCC or with vitamin D compounds of the invention, the percentage of cells containing black formazan deposits is determined. An increase in the percentage of NBT reducing cells indicates an increase in cell differentiation.

[2] = target: T1, human vitamin D binding protein (DBP) (Homo sapiens, UniProt P02774); assay: Affinity to vitamin D binding protein (competition with 3H-1α,25-DHCC); details: DBP purified from total human serum; 10^-11 to 2.5×10^-6 M; compared to 1α,25-DHCC; FIG. 1
T1 construct: pooled Gc allotypes not specified
T1 sequence (P02774 17-474): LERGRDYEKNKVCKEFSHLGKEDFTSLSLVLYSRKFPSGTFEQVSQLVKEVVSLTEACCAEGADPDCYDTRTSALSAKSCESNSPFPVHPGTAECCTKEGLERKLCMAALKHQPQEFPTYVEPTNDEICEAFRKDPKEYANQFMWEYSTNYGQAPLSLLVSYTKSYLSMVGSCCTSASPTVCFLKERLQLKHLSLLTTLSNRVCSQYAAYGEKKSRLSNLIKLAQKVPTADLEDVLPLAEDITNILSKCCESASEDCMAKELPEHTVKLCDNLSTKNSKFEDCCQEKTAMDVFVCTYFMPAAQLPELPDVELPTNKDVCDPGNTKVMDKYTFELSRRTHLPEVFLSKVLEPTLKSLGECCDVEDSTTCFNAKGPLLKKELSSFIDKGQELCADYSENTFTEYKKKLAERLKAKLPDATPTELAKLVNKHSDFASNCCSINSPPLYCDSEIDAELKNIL
From the text: Affinity to vitamin D binding protein.
Vitamin D binding protein (DBP) is the specific carrier for vitamin D and its metabolites in blood. The biological activity of vitamin D compounds depends on their binding to DBP, because strong binding to DBP will reduce the intracellular access to the VDR. Binding to the DBP may also influence the half-life of the vitamin D derivatives in circulation. Weak binders are rapidly metabolized, which is a favourable aspect in topical application.
In the assay, DBP is incubated with ^3 H-1α,25-DHCC and 1α,25-DHCC or with several vitamin D compounds according to the invention. To this purpose, the vitamin compounds are dissolved in ethanol in concentrations ranging from 10^-11 to 2.5×10^-6 M. The percentage bound/unbound ^3 H-1α,25-DHCC is then calculated. DBP is purified from total human serum. The results are shown in the appended FIG. 1. […] [^3 H]1α,25(OH)2 D3 =^3 H-1α,25-DHCC; in the Figure .cndot.=1α,25-DHCC (known compound); .quadrature.=compound 21; Δ=compound 28; o=compound 32 and .diamond.=compound 36.

[3] = target: T2, calf thymus intracellular vitamin D receptor (VDR) (Bos taurus, UniProt Q28037); assay: Affinity to intracellular vitamin D receptor (displacement of 3H-1α,25-DHCC); type: binding; details: 10^-13 to 10^-7 M, compared with 1α,25-dihydroxycholecalciferol
T2 sequence (Q28037 1-426): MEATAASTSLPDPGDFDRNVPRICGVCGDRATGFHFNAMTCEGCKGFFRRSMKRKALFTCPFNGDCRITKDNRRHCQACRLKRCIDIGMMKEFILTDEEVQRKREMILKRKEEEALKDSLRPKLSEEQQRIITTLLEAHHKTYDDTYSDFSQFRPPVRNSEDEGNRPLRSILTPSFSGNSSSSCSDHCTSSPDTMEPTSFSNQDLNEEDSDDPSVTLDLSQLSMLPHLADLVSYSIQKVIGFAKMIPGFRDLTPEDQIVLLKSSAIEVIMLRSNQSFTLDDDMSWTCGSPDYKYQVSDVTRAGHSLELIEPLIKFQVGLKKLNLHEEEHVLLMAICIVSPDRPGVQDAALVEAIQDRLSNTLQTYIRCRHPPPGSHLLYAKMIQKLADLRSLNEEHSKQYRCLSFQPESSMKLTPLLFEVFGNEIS
From the text: Affinity to intracellular vitamin D receptor.
In this assay, ^3 H-1α,25-dihydroxycholecalciferol (^3 H-1α,25-DHCC), which is specifically bound to the VDR, is replaced by the tested compounds. […] A high VDR-affinity is indicative for a biologically active substance. The tested compounds 21 and 28 have moderate VDR-affinities, whereas tested compound 36 has a weak VDR-affinity.

Row | binding to the DBP [2] | VDR-affinity [3] | Compound | concentration of optimum differentiating effect [1] | induction of differentiation and maturation of HL-60 cells [1] | NBT-reduction inducing capacity relative to the known 1α,25-DHCC [1]
1 | – | – | C=C1/C(=C\C=C2/CCC[C@]3(C)[C@@H]([C@H](C)CCCC(C)(C)O)CC[C@@H]23)C[C@@H](O)C[C@@H]1O [1α,25-DHCC, 1α,25-dihydroxycholecalciferol, reference compound] | 10^-8 to 10^-7 M | induce differentiation and maturation | –
2 | rather weakly | moderate | C=C1/C(=C\C=C2/CCC[C@]3(C)/C(=C\CCCC(C)(C)O)CC[C@@H]23)C[C@@H](O)C[C@@H]1O [compound 21] | 10^-8 to 10^-7 M | induce differentiation and maturation | 3-5 times
3 | rather weakly | moderate | C=C1/C(=C\C=C2/CCC[C@]3(C)/C(=C/CCCC(C)(C)O)CC[C@@H]23)C[C@@H](O)C[C@@H]1O [compound 28] | 10^-8 to 10^-7 M | induce differentiation and maturation | as potent as the known 1α,25-DHCC
4 | rather weakly | high | C=C1/C(=C\C=C2/CCC[C@@]3(C)[C@H]2CC[C@@]32C[C@@H]2CCCC(C)(C)O)C[C@@H](O)C[C@@H]1O [compound 32] | 10^-8 to 10^-7 M | induce differentiation and maturation | 3-5 times
5 | rather weakly | weak | C=C1/C(=C\C=C2/CCC[C@@]3(C)[C@H]2CC[C@@]32C[C@H]2CCCC(C)(C)O)C[C@@H](O)C[C@@H]1O [compound 36] | 10^-8 to 10^-7 M | induce differentiation and maturation | about 10 times
